Results as given in patent US8247211B2, “Glycopeptide antibiotics” (American Cyanamid Company, priority 2001, dated 2012).
Values after ≈ are worked out from the molar mass of the structure shown.

Experiments:
Experiment in all cases: In vitro antibacterial evaluation: minimum inhibitory concentration (MIC), broth dilution method
Format in all cases: cell-based
Enterococcus sp. = conditions: for MIC Enterococcus faecalis (GC 2242) / MIC Enterococcus faecalis (GC 4552): 18 hours at 35° C.
Outline: (§1)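 Values are minimum inhibitory concentrations, meaning the smallest antibiotic concentration that stops growth of the organism. They come from broth dilution in Muller-Hinton II […] per NCCLS guidance (M7-A2), using 5×10^5 CFU/mL and concentrations from 64 to 0.06 μg/mL.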

Escherichia coli [1] = tested on: Escherichia coli
Outline: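 Test strains, among them recent clinical isolates carrying methicillin, penicillin and/or vancomycin resistance, were inoculated at 5×10^5 CFU/mL. A broth dilution series spanning 64-0.06 μg/mL in Muller-Hinton II […] (NCCLS M7-A2) defined the MIC as the lowest growth-inhibiting concentration.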

Staphylococcus sp. = conditions: 18 hours at 35° C.
Outline: as §1

Streptococcus sp. = conditions: 18 hours at 35° C.
Outline: as §1

Escherichia coli [2] = tested on: Escherichia coli; remark: listed apart in the source

| MIC Enterococcus avium (GC 4558) (Enterococcus sp.) | MIC Enterococcus faecalis (ATCC 29212) (Enterococcus sp.) | MIC Enterococcus faecalis (GC 2242) (Enterococcus sp.) | MIC Enterococcus faecalis (GC 4552) (Enterococcus sp.) | MIC Enterococcus faecalis (GC 4553) (Enterococcus sp.) | MIC Enterococcus faecalis (GC 4554) (Enterococcus sp.) | MIC Enterococcus faecium (GC 2243) (Enterococcus sp.) | MIC Enterococcus faecium (GC 4556) (Enterococcus sp.) | MIC Enterococcus faecium (GC 4557) (Enterococcus sp.) | MIC Escherichia coli (GC 4559) (Escherichia coli [1]) | MIC Escherichia coli (GC 4560) (Escherichia coli [1]) | MIC Coagulase Negative Staphylococcus (GC 4547) (Staphylococcus sp.) | MIC Coagulase Negative Staphylococcus (GC 4547) (Staphylococcus sp.; broth dilution) | MIC Coagulase Negative Staphylococcus (GC 4548) (Staphylococcus sp.) | MIC Coagulase Negative Staphylococcus (GC 4548) (Staphylococcus sp.; broth dilution) | MIC Coagulase Negative Staphylococcus (GC 4549) (Staphylococcus sp.) | MIC Coagulase Negative Staphylococcus (GC 4549) (Staphylococcus sp.; broth dilution) | MIC Coagulase Negative Staphylococcus (GC 4551) (Staphylococcus sp.) | MIC Coagulase Negative Staphylococcus (GC 4551) (Staphylococcus sp.; broth dilution) | MIC Staphylococcus aureus (ATCC 29213) (Staphylococcus sp.) | SMILES | also measured |
| --- | --- | --- | --- | --- | --- | --- | --- | --- | --- | --- | --- | --- | --- | --- | --- | --- | --- | --- | --- | --- | --- |
| 16 µg/mL (≈ 11.3 µM) | 32 µg/mL (≈ 22.6 µM) | 16 µg/mL (≈ 11.3 µM) | 32 µg/mL (≈ 22.6 µM) | 32 µg/mL (≈ 22.6 µM) | 32 µg/mL (≈ 22.6 µM) | 16 µg/mL (≈ 11.3 µM) | 16 µg/mL (≈ 11.3 µM) | 2 µg/mL (≈ 1.41 µM) | >64 µg/mL | 1 µg/mL (≈ 0.707 µM) | 2 µg/mL (≈ 1.41 µM) | 2 µg/mL (≈ 1.41 µM) | 1 µg/mL (≈ 0.707 µM) | 1 µg/mL (≈ 0.707 µM) | 1 µg/mL (≈ 0.707 µM) | 1 µg/mL (≈ 0.707 µM) | 2 µg/mL (≈ 1.41 µM) | 2 µg/mL (≈ 1.41 µM) | 4 µg/mL (≈ 2.83 µM) | CC(C)CC(=O)OC1C(O)C(CO)OC(OC2C(CO)OC(Oc3ccc(CC4NC(=O)C(C(C)c5ccc(Cl)cc5)NC(=O)CNC(=O)C(CO)NC(=O)C(C(O)C5CNC(=N)N5C5OC(CO)C(O)C(O)C5O)NC(=O)C(C(O)C5CNC(=N)N5)NC4=O)cc3)C(O)C2O)C1O (stereo not drawn) [Example 262b] | MIC Staphylococcus aureus (ATCC 29213) (Staphylococcus sp.; broth dilution): 4 µg/mL (≈ 2.83 µM); MIC Staphylococcus aureus (GC 1131) (Staphylococcus sp.): 4 µg/mL (≈ 2.83 µM); MIC Staphylococcus aureus (GC 1131) (Staphylococcus sp.; broth dilution): 4 µg/mL (≈ 2.83 µM); MIC Staphylococcus aureus (GC 4541) (Staphylococcus sp.): 2 µg/mL (≈ 1.41 µM); MIC Staphylococcus aureus (GC 4541) (Staphylococcus sp.; broth dilution): 2 µg/mL (≈ 1.41 µM); MIC Staphylococcus aureus (GC 4542) (Staphylococcus sp.): 2 µg/mL (≈ 1.41 µM); MIC Staphylococcus aureus (GC 4542) (Staphylococcus sp.; broth dilution): 2 µg/mL (≈ 1.41 µM); MIC Staphylococcus aureus (GC 4544) (Staphylococcus sp.): 4 µg/mL (≈ 2.83 µM); MIC Staphylococcus aureus (GC 4544) (Staphylococcus sp.; broth dilution): 4 µg/mL (≈ 2.83 µM); MIC Staphylococcus aureus (GC 4545) (Staphylococcus sp.): 2 µg/mL (≈ 1.41 µM); MIC Staphylococcus aureus (GC 4545) (Staphylococcus sp.; broth dilution): 2 µg/mL (≈ 1.41 µM); MIC Staphylococcus aureus-SMITH (GC 4543) (Staphylococcus sp.): 1 µg/mL (≈ 0.707 µM); MIC Staphylococcus aureus-SMITH (GC 4543) (Staphylococcus sp.; broth dilution): 1 µg/mL (≈ 0.707 µM); MIC Staphylococcus haemolyticus (GC 4546) (Staphylococcus sp.): 2 µg/mL (≈ 1.41 µM); MIC Staphylococcus haemolyticus (GC 4546) (Staphylococcus sp.; broth dilution): 2 µg/mL (≈ 1.41 µM); MIC Streptococcus agalactiae (GC 4564) (Streptococcus sp.): 1 µg/mL (≈ 0.707 µM); MIC Streptococcus pyogenes (ID-3187) (Streptococcus sp.): 1 µg/mL (≈ 0.707 µM); MIC Escherichia coli (ATCC 25922) (Escherichia coli [2]): >64 µg/mL |
| >64 µg/mL | 64 µg/mL (≈ 45.8 µM) | 64 µg/mL (≈ 45.8 µM) | >64 µg/mL | >64 µg/mL | >64 µg/mL | >64 µg/mL | 64 µg/mL (≈ 45.8 µM) | 32 µg/mL (≈ 22.9 µM) | >64 µg/mL | 4 µg/mL (≈ 2.86 µM) | 8 µg/mL (≈ 5.72 µM) | 8 µg/mL (≈ 5.72 µM) | 4 µg/mL (≈ 2.86 µM) | 4 µg/mL (≈ 2.86 µM) | 4 µg/mL (≈ 2.86 µM) | 4 µg/mL (≈ 2.86 µM) | 16 µg/mL (≈ 11.4 µM) | 16 µg/mL (≈ 11.4 µM) | 16 µg/mL (≈ 11.4 µM) | CC(C)CC(=O)OC1C(OC2C(CO)OC(Oc3ccc(CC4NC(=O)C(C(C)c5cccc(F)c5)NC(=O)CNC(=O)C(CO)NC(=O)C(C(O)C5CNC(=N)N5C5OC(CO)C(O)C(O)C5O)NC(=O)C(C(O)C5CNC(=N)N5)NC4=O)cc3)C(O)C2O)OC(CO)C(O)C1O (stereo not drawn) [Example 264a] | MIC Staphylococcus aureus (ATCC 29213) (Staphylococcus sp.; broth dilution): 16 µg/mL (≈ 11.4 µM); MIC Staphylococcus aureus (GC 1131) (Staphylococcus sp.): 16 µg/mL (≈ 11.4 µM); MIC Staphylococcus aureus (GC 1131) (Staphylococcus sp.; broth dilution): 16 µg/mL (≈ 11.4 µM); MIC Staphylococcus aureus (GC 4541) (Staphylococcus sp.): 16 µg/mL (≈ 11.4 µM); MIC Staphylococcus aureus (GC 4541) (Staphylococcus sp.; broth dilution): 16 µg/mL (≈ 11.4 µM); MIC Staphylococcus aureus (GC 4542) (Staphylococcus sp.): 16 µg/mL (≈ 11.4 µM); MIC Staphylococcus aureus (GC 4542) (Staphylococcus sp.; broth dilution): 16 µg/mL (≈ 11.4 µM); MIC Staphylococcus aureus (GC 4544) (Staphylococcus sp.): 8 µg/mL (≈ 5.72 µM); MIC Staphylococcus aureus (GC 4544) (Staphylococcus sp.; broth dilution): 8 µg/mL (≈ 5.72 µM); MIC Staphylococcus aureus (GC 4545) (Staphylococcus sp.): 8 µg/mL (≈ 5.72 µM); MIC Staphylococcus aureus (GC 4545) (Staphylococcus sp.; broth dilution): 8 µg/mL (≈ 5.72 µM); MIC Staphylococcus aureus-SMITH (GC 4543) (Staphylococcus sp.): 8 µg/mL (≈ 5.72 µM); MIC Staphylococcus aureus-SMITH (GC 4543) (Staphylococcus sp.; broth dilution): 8 µg/mL (≈ 5.72 µM); MIC Staphylococcus haemolyticus (GC 4546) (Staphylococcus sp.): 8 µg/mL (≈ 5.72 µM); MIC Staphylococcus haemolyticus (GC 4546) (Staphylococcus sp.; broth dilution): 8 µg/mL (≈ 5.72 µM); MIC Streptococcus agalactiae (GC 4564) (Streptococcus sp.): 8 µg/mL (≈ 5.72 µM); MIC Streptococcus pyogenes (ID-3187) (Streptococcus sp.): 4 µg/mL (≈ 2.86 µM); MIC Escherichia coli (ATCC 25922) (Escherichia coli [2]): 64 µg/mL (≈ 45.8 µM) |
| 64 µg/mL (≈ 45.8 µM) | 64 µg/mL (≈ 45.8 µM) | 32 µg/mL (≈ 22.9 µM) | 64 µg/mL (≈ 45.8 µM) | 64 µg/mL (≈ 45.8 µM) | 64 µg/mL (≈ 45.8 µM) | 64 µg/mL (≈ 45.8 µM) | 64 µg/mL (≈ 45.8 µM) | 8 µg/mL (≈ 5.72 µM) | >64 µg/mL | 4 µg/mL (≈ 2.86 µM) | 4 µg/mL (≈ 2.86 µM) | 4 µg/mL (≈ 2.86 µM) | 4 µg/mL (≈ 2.86 µM) | 4 µg/mL (≈ 2.86 µM) | 4 µg/mL (≈ 2.86 µM) | 4 µg/mL (≈ 2.86 µM) | 8 µg/mL (≈ 5.72 µM) | 8 µg/mL (≈ 5.72 µM) | 8 µg/mL (≈ 5.72 µM) | CC(C)CC(=O)OC1C(O)C(CO)OC(OC2C(CO)OC(Oc3ccc(CC4NC(=O)C(C(C)c5cccc(F)c5)NC(=O)CNC(=O)C(CO)NC(=O)C(C(O)C5CNC(=N)N5C5OC(CO)C(O)C(O)C5O)NC(=O)C(C(O)C5CNC(=N)N5)NC4=O)cc3)C(O)C2O)C1O (stereo not drawn) [Example 264b] | MIC Staphylococcus aureus (ATCC 29213) (Staphylococcus sp.; broth dilution): 8 µg/mL (≈ 5.72 µM); MIC Staphylococcus aureus (GC 1131) (Staphylococcus sp.): 8 µg/mL (≈ 5.72 µM); MIC Staphylococcus aureus (GC 1131) (Staphylococcus sp.; broth dilution): 8 µg/mL (≈ 5.72 µM); MIC Staphylococcus aureus (GC 4541) (Staphylococcus sp.): 8 µg/mL (≈ 5.72 µM); MIC Staphylococcus aureus (GC 4541) (Staphylococcus sp.; broth dilution): 8 µg/mL (≈ 5.72 µM); MIC Staphylococcus aureus (GC 4542) (Staphylococcus sp.): 8 µg/mL (≈ 5.72 µM); MIC Staphylococcus aureus (GC 4542) (Staphylococcus sp.; broth dilution): 8 µg/mL (≈ 5.72 µM); MIC Staphylococcus aureus (GC 4544) (Staphylococcus sp.): 8 µg/mL (≈ 5.72 µM); MIC Staphylococcus aureus (GC 4544) (Staphylococcus sp.; broth dilution): 8 µg/mL (≈ 5.72 µM); MIC Staphylococcus aureus (GC 4545) (Staphylococcus sp.): 4 µg/mL (≈ 2.86 µM); MIC Staphylococcus aureus (GC 4545) (Staphylococcus sp.; broth dilution): 4 µg/mL (≈ 2.86 µM); MIC Staphylococcus aureus-SMITH (GC 4543) (Staphylococcus sp.): 8 µg/mL (≈ 5.72 µM); MIC Staphylococcus aureus-SMITH (GC 4543) (Staphylococcus sp.; broth dilution): 8 µg/mL (≈ 5.72 µM); MIC Staphylococcus haemolyticus (GC 4546) (Staphylococcus sp.): 4 µg/mL (≈ 2.86 µM); MIC Staphylococcus haemolyticus (GC 4546) (Staphylococcus sp.; broth dilution): 4 µg/mL (≈ 2.86 µM); MIC Streptococcus agalactiae (GC 4564) (Streptococcus sp.): 4 µg/mL (≈ 2.86 µM); MIC Streptococcus pyogenes (ID-3187) (Streptococcus sp.): 4 µg/mL (≈ 2.86 µM); MIC Escherichia coli (ATCC 25922) (Escherichia coli [2]): 64 µg/mL (≈ 45.8 µM) |
